Tests used:
[1] = test system: K-562 (Leukemia); assay: NCI five-dose SRB assay; assay type: cell-based; conditions: Homo sapiens, K562, 48 h
[2] = test system: SR (Leukemia); assay: NCI five-dose SRB assay; assay type: cell-based; conditions: Homo sapiens, 48 h
[3] = test system: Leukemia cell lines (MG_MID); assay: NCI five-dose SRB assay; assay type: cell-based; conditions: Homo sapiens, 48 h
[4] = test system: EKVX (Non-Small Cell Lung Cancer); assay: NCI five-dose SRB assay; assay type: cell-based; conditions: Homo sapiens, 48 h
[5] = test system: HOP-62 (Non-Small Cell Lung Cancer); assay: NCI five-dose SRB assay; assay type: cell-based; conditions: Homo sapiens, 48 h
[6] = test system: HOP-92 (Non-Small Cell Lung Cancer); assay: NCI five-dose SRB assay; assay type: cell-based; conditions: Homo sapiens, 48 h
[7] = test system: Non-Small Cell Lung Cancer cell lines (MG_MID); assay: NCI five-dose SRB assay; assay type: cell-based; conditions: Homo sapiens, 48 h
[8] = test system: HCC-2998 (Colon Cancer); assay: NCI five-dose SRB assay; assay type: cell-based; conditions: Homo sapiens, 48 h
[9] = test system: HCT-116 (Colon Cancer); assay: NCI five-dose SRB assay; assay type: cell-based; conditions: Homo sapiens, 48 h
[10] = test system: HCT-15 (Colon Cancer); assay: NCI five-dose SRB assay; assay type: cell-based; conditions: Homo sapiens, 48 h
[11] = test system: HT29 (Colon Cancer); assay: NCI five-dose SRB assay; assay type: cell-based; conditions: Homo sapiens, HT-29, 48 h
[12] = test system: SW-629 (Colon Cancer); assay: NCI five-dose SRB assay; assay type: cell-based; conditions: Homo sapiens, 48 h
[13] = test system: SF-268 (CNS Cancer); assay: NCI five-dose SRB assay; assay type: cell-based; conditions: Homo sapiens, 48 h
[14] = test system: SF-295 (CNS Cancer); assay: NCI five-dose SRB assay; assay type: cell-based; conditions: Homo sapiens, 48 h
[15] = test system: LOX IMVI (Melanoma); assay: NCI five-dose SRB assay; assay type: cell-based; conditions: Homo sapiens, 48 h
[16] = test system: SK-MEL-2 (Melanoma); assay: NCI five-dose SRB assay; assay type: cell-based; conditions: Homo sapiens, 48 h
[17] = test system: SK-MEL-28 (Melanoma); assay: NCI five-dose SRB assay; assay type: cell-based; conditions: Homo sapiens, 48 h
[18] = test system: UACC-257 (Melanoma); assay: NCI five-dose SRB assay; assay type: cell-based; conditions: Homo sapiens, 48 h
[19] = test system: IGROV-1 (Ovarian Cancer); assay: NCI five-dose SRB assay; assay type: cell-based; conditions: Homo sapiens, 48 h
[20] = test system: OVCAR-4 (Ovarian Cancer); assay: NCI five-dose SRB assay; assay type: cell-based; conditions: Homo sapiens, 48 h
[21] = test system: OVCAR-8 (Ovarian Cancer); assay: NCI five-dose SRB assay; assay type: cell-based; conditions: Homo sapiens, 48 h
[22] = test system: A498 (Renal Cancer); assay: NCI five-dose SRB assay; assay type: cell-based; conditions: Homo sapiens, 48 h
[23] = test system: ACHN (Renal Cancer); assay: NCI five-dose SRB assay; assay type: cell-based; conditions: Homo sapiens, 48 h
[24] = test system: RXF 393 (Renal Cancer); assay: NCI five-dose SRB assay; assay type: cell-based; conditions: Homo sapiens, 48 h
[25] = test system: SN12C (Renal Cancer); assay: NCI five-dose SRB assay; assay type: cell-based; conditions: Homo sapiens, 48 h
[26] = test system: Renal Cancer cell lines (MG_MID); assay: NCI five-dose SRB assay; assay type: cell-based; conditions: Homo sapiens, 48 h
[27] = test system: PC-3 (Prostate Cancer); assay: NCI five-dose SRB assay; assay type: cell-based; conditions: Homo sapiens, 48 h
[28] = test system: MDA-MB-231/ATCC (Breast Cancer); assay: NCI five-dose SRB assay; assay type: cell-based; conditions: Homo sapiens, 48 h
[29] = test system: MDA-MB-468 (Breast Cancer); assay: NCI five-dose SRB assay; assay type: cell-based; conditions: Homo sapiens, 48 h
[30] = test system: MCF-7 cell line; assay: Time-dependent viability test (MTT); assay type: cell-based, human; conditions: MCF-7, 10 µM
Protocol: A strong correlation was detected between the treatment time and an anti-proliferative potential. The cytotoxic effect of this compound develops after […] of incubation. This feature may explain the difference of cell viability compared with the NCI results which were obtained at 48th hour of incubation of cells with derivative 4. […] The result obtained at 48th hour of treatment of the MCF-7 cells with the compound 4 in concentration 10 µM correlates to some extent with data of the NCI screening. At that time point, 43% of the cells died.
Time-dependent viability data were obtained as a result of 24, 48, 72, and 124 h MTT tests performed on the MCF-7 cells treated with the compound 4 (10 μM).

[31] = test system: MCF-7 breast cancer cells; assay: Soft agar drug sensitivity assay; assay type: cell-based, human; conditions: MCF-7, 1 and 5 µM, day 12
Protocol: It was proposed that testing of drugs in a 3-dimensional (3D) format, such as soft agar, is more similar to the in vivo cellular microenvironment and the results of such testing have a good correlation with in vivo conditions.
Five hundred MCF-7 breast cancer cells in 0.5% sterile agar (Bacto-Agar, Difco Laboratories) were layered on a preformed 0.8% sterile agar layer using 24 well plate (CytoONE, STARLAB International GmbH, Hamburg, Germany). The cells in agar were treated with the compound 4 at concentrations of 1 and 5 µM/mL. Doxorubicin was used as a positive control. The 0.5% agar layer included DMEM medium containing 10% FBS, cells, and tested compounds. The 0.8% agar layer included DMEM medium. Colonies with a size of >50 µm were counted under the microscope and photographed after 12 days.

[32] = test system: MCF-7 cells; assay: Chemical synthetic lethality: MTT after preincubation with BRCA1 inhibitor Bractoppin; assay type: cell-based; conditions: Homo sapiens, MCF7; MCF-7, 30 min preincubation with Bractoppin, 72 h MTT; read-out: IC50 in the case of BRCA1 inhibition
[33] = test system: NCI-H522 (Non-Small Cell Lung Cancer); assay: NCI one-dose SRB assay; conditions: 10 μM, 48 h
Protocol: (§1) Primary anticancer assays (Table 3) on a panel of 60 cancer cell lines at one dose-assay (10^−5 M) were performed according to the NCI protocol, as described elsewhere [31, 32, 33, 34, 35].
(§2) A primary anticancer assay was performed on a panel of approximately sixty human tumor cell lines derived from nine neoplastic diseases, in accordance with the protocol of the Drug Evaluation Branch, National Cancer Institute, Bethesda [31, 32, 33, 34, 35]. Tested compounds were added to the culture at a single concentration (10^−5 M) and the cultures were incubated for 48 h. End point determinations were made with a protein binding dye, Sulphorhodamine B (SRB). […] The percentage growth was evaluated spectrophotometrically versus controls not treated with test agents.

[34] = test system: Colo 205 (Colon Cancer); assay: NCI one-dose SRB assay; conditions: 10 μM, 48 h
[35] = test system: HT29 (Colon Cancer); assay: NCI one-dose SRB assay; conditions: 10 μM, 48 h
Protocol: Tested compounds were added to the culture at a single concentration (10^−5 M) and the cultures were incubated for 48 h. End point determinations were made with a protein binding dye, Sulphorhodamine B (SRB). […] The percentage growth was evaluated spectrophotometrically versus controls not treated with test agents.

[36] = test system: LOX IMVI (Melanoma); assay: NCI one-dose SRB assay; conditions: 10 μM, 48 h
Protocol: as §1, §2

[37] = test system: HCT-116 p53 (−/−) colon cancer cells; assay: MTT assay of cell viability; conditions: Homo sapiens, HCT-116, 72 h
Text: The cell lines used in our work were kindly provided by a Collection at the Institute of Molecular Biology and Genetics, National Academy of Sciences of Ukraine (Kyiv, Ukraine).

[38] = test system: human epidermal keratinocytes of HaCaT line; assay: MTT assay of cell viability; conditions: 72 h

CCOC(=O)c1ccc(NC(=O)CSC(CC(=O)c2sc(Nc3ccccn3)nc2C)c2ccccc2F)cc1 (stereo not shown) [Compound 4, Ethyl 4-[[2-[1-(2-Fluorophenyl)-3-[4-methyl-2-(2-pyridylamino)thiazol-5-yl]-3-oxopropyl]sulfanylacetyl]amino]benzoate] was tested, and the GI50 [1] was 30.4 µM, the GI50 [2] was 24.1 µM and the GI50 [3] was 22.5 µM. For the same compound, the GI50 [4] was 19 µM, the GI50 [5] was 37.5 µM and the GI50 [6] was 12.5 µM. It also gave a GI50 [7] of 27.6 µM, a GI50 [8] of 23.1 µM and a GI50 [9] of 23 µM. The GI50 [10] was 25.8 µM, the GI50 [11] was 58.3 µM and the GI50 [12] was 75.3 µM. For the same compound, the GI50 [13] was 43.1 µM, the GI50 [14] was 32.2 µM and the GI50 [15] was 312 nM. For the same compound, the GI50 [16] was 44.9 µM, the GI50 [17] was 38.7 µM and the GI50 [18] was 38.4 µM. The GI50 [19] was 12.1 µM, the GI50 [20] was 66.1 µM and the GI50 [21] was 53.6 µM. It also gave a GI50 [22] of 69.2 µM, a GI50 [23] of 45.6 µM and a GI50 [24] of 2590 nM. It also gave a GI50 [25] of 28 µM, a GI50 [26] of 33.4 µM and a GI50 [27] of 23.8 µM. The GI50 [28] was 19.3 µM, the GI50 [29] was 4.24 µM and the cells killed ([30]; 24 h) was 19.9%. For the same compound, the cells died ([30]; 48 h) was 43%, the cells died ([30]; 124 h) was 90% and the “size and number of colonies in soft agar” value [31] was “reduces the size and number of colonies”. The IC50 [32] was 700 nM, the Growth % [33] was −22.73% and the Growth % [34] was −34.08%. It also gave a Growth % [35] of −28.32%, a Growth % [36] of −76.78% and an IC50 [37] of 3.43 ± 0.9 µM. For the same compound, the IC50 [38] was > 50 µM.

Reference: paper PMC9570594, “Development of Novel Pyridine-Thiazole Hybrid Molecules as Potential Anticancer Agents” (Molecules, 2022)
